Publication PMC8550792, “Evolution of kinase polypharmacology across HSP90 drug discovery” (Cell Chemical Biology, 2021)

Assays:
Assay in all cases: biochemical
Assay type in all cases: biochemical
382 unique human kinases [1] = target: T1, 382 unique human kinases (Homo sapiens, UniProt P10721, Y823D); conditions: c-Kit (Y823D), [ATP] 100 µM, compound 10 uM; for remaining activity at 10 µM: read-out: % Enzyme Activity (relative to DMSO controls)
T1 construct: purchased Reaction Biology (HotSpot contract assay)
T1 sequence (P10721 26-976 Y823D): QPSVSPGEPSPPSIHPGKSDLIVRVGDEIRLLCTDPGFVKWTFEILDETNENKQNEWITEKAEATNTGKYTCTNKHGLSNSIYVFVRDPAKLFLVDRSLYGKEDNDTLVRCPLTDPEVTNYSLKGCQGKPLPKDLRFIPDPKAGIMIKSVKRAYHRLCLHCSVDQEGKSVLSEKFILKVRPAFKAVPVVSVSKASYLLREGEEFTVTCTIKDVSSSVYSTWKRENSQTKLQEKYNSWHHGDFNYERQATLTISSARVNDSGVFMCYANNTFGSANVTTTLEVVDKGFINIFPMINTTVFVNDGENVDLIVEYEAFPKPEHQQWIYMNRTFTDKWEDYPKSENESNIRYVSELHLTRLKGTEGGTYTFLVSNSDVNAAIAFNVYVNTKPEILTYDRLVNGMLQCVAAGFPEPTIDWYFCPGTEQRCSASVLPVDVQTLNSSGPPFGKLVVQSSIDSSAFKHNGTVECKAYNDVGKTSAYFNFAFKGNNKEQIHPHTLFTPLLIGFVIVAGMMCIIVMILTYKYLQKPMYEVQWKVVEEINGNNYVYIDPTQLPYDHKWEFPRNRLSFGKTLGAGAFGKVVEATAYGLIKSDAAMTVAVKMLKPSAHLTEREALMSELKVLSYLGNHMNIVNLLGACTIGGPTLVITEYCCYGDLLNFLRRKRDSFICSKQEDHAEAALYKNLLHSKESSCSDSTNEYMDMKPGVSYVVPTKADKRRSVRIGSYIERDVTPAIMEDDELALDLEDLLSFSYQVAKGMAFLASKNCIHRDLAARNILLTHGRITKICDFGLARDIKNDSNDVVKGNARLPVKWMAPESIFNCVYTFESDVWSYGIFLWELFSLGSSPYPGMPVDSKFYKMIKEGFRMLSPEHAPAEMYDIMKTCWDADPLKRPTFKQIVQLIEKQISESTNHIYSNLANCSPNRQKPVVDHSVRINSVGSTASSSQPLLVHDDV

382 unique human kinases [2] = target: T2, 382 unique human kinases (Homo sapiens, UniProt Q9UM73, T1151M); conditions: ALK (T1151M), [ATP] 50 µM, compound 10 uM; for remaining activity at 10 µM: read-out: % Enzyme Activity (relative to DMSO controls)
T2 construct: purchased Reaction Biology (HotSpot contract assay)
T2 sequence (Q9UM73 19-1620 T1151M): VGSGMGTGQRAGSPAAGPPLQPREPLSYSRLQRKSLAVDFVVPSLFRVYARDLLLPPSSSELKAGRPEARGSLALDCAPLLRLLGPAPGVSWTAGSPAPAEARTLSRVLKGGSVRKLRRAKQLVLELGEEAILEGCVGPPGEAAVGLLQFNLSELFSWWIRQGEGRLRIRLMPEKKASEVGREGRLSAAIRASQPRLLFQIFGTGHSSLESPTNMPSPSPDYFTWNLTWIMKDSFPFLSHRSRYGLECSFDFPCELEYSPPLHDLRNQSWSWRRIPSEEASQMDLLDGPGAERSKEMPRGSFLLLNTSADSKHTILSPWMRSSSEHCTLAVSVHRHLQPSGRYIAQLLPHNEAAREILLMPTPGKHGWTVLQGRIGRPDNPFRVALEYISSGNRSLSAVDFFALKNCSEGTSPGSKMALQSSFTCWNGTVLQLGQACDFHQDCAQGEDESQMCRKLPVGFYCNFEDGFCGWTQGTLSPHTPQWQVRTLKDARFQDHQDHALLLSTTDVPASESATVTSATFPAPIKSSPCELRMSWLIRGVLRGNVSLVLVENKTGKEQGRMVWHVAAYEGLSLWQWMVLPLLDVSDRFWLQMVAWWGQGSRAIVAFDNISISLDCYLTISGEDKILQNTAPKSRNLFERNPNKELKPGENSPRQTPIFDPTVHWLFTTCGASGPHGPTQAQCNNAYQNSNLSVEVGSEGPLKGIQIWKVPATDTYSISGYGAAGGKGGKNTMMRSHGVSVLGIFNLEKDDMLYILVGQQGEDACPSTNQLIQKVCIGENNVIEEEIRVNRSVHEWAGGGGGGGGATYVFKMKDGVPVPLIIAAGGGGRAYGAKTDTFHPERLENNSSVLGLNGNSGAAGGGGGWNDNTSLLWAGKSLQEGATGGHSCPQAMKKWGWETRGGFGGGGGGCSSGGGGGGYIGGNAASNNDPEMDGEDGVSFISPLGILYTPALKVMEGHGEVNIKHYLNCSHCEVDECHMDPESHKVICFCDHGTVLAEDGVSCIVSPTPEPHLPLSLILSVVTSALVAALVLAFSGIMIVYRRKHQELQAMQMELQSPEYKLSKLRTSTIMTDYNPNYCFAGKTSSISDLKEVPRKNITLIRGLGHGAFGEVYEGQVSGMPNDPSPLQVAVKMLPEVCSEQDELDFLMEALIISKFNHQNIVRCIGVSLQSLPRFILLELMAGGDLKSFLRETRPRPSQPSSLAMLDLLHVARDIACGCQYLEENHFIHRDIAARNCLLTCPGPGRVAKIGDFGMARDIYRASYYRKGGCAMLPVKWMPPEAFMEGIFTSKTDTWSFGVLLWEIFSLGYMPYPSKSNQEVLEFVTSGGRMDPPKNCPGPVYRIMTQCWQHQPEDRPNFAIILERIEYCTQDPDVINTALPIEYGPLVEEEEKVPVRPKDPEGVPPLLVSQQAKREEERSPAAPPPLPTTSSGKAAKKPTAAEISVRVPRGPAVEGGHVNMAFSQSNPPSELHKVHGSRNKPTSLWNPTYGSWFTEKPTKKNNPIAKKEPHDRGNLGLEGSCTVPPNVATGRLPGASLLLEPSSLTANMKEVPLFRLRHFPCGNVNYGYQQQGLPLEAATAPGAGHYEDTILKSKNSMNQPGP

382 unique human kinases [3] = target: T3, 382 unique human kinases (Homo sapiens, UniProt Q9H2K8); conditions: TAOK3/JIK, 10 uM; for remaining activity at 10 µM: read-out: % Enzyme Activity (relative to DMSO controls)
T3 construct: purchased Reaction Biology (HotSpot contract assay)
T3 sequence (Q9H2K8 1-898): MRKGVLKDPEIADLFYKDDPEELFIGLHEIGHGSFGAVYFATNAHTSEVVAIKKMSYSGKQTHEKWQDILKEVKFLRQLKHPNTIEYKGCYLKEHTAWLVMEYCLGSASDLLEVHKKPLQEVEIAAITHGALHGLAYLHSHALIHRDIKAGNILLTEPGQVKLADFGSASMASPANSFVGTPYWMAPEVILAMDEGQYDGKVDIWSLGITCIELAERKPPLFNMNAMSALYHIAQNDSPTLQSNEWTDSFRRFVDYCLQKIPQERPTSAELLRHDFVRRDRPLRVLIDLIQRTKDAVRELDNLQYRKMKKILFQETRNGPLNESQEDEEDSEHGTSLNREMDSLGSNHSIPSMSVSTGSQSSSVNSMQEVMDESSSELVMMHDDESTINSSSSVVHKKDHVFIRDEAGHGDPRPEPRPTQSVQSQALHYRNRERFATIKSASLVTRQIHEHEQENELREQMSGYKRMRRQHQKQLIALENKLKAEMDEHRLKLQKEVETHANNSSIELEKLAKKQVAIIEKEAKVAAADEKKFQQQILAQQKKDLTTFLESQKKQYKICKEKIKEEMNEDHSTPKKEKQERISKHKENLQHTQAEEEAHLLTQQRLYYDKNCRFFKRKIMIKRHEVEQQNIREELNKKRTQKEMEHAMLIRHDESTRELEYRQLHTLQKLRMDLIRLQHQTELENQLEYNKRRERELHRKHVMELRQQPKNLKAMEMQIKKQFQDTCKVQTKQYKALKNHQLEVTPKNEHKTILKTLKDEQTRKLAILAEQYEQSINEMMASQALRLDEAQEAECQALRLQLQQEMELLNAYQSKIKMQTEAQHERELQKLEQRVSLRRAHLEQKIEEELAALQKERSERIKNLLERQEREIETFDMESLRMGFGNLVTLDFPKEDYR

382 unique human kinases [4] = target: T4, 382 unique human kinases (Homo sapiens, UniProt Q14012); conditions: CAMK1a, 10 uM; for remaining activity at 10 µM: read-out: % Enzyme Activity (relative to DMSO controls)
T4 construct: purchased Reaction Biology (HotSpot contract assay)
T4 sequence (Q14012 whole entry): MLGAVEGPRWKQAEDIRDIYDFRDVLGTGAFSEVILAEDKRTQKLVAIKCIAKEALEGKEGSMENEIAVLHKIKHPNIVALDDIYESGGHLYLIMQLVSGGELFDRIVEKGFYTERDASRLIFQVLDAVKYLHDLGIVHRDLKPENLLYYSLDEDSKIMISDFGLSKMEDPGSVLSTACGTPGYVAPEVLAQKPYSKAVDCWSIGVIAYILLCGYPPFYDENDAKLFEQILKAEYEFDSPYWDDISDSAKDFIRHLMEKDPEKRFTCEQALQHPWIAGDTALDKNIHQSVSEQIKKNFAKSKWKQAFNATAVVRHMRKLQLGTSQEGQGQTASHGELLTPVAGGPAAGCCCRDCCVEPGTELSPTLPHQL

382 unique human kinases [5] = target: T5, 382 unique human kinases (Homo sapiens, UniProt Q5S007, I2020T); conditions: LRRK2 (I2020T), [ATP] 10 µM, compound 10 uM; for remaining activity at 10 µM: read-out: % Enzyme Activity (relative to DMSO controls)
T5 construct: purchased Reaction Biology (HotSpot contract assay)

382 unique human kinases [6] = target: T6, 382 unique human kinases (Homo sapiens, UniProt P45984); conditions: kinase JNK2, compound 10 uM; for remaining activity at 10 µM: read-out: % Enzyme Activity (relative to DMSO controls)
T6 construct: purchased Reaction Biology (HotSpot contract assay)
T6 sequence (P45984 whole entry): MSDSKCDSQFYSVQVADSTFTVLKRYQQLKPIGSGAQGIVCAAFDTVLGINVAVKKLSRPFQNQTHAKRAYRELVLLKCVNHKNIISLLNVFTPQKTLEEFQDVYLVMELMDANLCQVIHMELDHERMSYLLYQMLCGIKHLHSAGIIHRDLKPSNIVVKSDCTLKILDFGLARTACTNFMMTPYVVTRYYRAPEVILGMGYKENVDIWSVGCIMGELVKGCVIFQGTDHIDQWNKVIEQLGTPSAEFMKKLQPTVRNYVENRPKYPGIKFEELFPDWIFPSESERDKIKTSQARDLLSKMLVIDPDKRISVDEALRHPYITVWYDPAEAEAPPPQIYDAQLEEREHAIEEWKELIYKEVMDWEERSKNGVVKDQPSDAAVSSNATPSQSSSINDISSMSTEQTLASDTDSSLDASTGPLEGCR

382 unique human kinases [7] = target: T7, 382 unique human kinases (Homo sapiens, UniProt Q6IQ55); conditions: TTBK2, compound at 10 uM, duplicate values; for remaining activity at 10 µM: read-out: % Enzyme Activity (relative to DMSO controls)
T7 construct: purchased Reaction Biology (HotSpot contract assay)

382 unique human kinases [8] = target: T8, 382 unique human kinases (Homo sapiens, UniProt P51817); conditions: PRKX, compound at 10 uM, duplicate values; for remaining activity at 10 µM: read-out: % Enzyme Activity (relative to DMSO controls)
T8 construct: purchased Reaction Biology (HotSpot contract assay)
T8 sequence (P51817 1-358): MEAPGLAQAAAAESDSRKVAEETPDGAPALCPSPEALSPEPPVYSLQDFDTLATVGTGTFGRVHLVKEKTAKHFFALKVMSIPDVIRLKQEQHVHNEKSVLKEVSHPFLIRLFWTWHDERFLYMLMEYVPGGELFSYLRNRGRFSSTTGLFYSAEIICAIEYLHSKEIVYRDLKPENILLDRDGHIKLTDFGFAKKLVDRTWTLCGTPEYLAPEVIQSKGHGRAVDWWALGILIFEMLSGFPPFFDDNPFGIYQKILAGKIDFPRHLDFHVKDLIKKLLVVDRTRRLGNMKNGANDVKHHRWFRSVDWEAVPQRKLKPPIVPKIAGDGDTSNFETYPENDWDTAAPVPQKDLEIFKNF

382 unique human kinases [9] = target: T9, 382 unique human kinases (Homo sapiens, UniProt P51812); conditions: RSK2, 10 uM; for remaining activity at 10 µM: read-out: % Enzyme Activity (relative to DMSO controls)
T9 construct: purchased Reaction Biology (HotSpot contract assay)
T9 sequence (P51812 whole entry): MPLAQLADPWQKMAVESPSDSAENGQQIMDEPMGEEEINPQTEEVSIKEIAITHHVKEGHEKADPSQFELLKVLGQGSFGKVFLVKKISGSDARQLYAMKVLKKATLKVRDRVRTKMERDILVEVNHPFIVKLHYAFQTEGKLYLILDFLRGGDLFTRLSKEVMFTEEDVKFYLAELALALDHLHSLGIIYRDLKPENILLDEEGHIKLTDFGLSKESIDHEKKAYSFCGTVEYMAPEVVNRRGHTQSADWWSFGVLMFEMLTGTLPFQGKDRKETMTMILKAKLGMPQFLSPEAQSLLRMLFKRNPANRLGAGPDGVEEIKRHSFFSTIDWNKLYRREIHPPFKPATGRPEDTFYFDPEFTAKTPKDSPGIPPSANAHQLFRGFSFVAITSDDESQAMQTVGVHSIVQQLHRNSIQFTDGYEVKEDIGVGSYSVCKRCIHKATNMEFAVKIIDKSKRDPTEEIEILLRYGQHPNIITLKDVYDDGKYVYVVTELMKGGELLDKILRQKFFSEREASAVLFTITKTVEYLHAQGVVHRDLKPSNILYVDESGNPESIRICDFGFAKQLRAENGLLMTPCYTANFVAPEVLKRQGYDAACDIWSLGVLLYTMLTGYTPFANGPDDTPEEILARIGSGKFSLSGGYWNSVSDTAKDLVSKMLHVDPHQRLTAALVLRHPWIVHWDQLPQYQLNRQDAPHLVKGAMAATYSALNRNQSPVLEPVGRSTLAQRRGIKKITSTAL

382 unique human kinases [10] = target: T10, 382 unique human kinases (Homo sapiens, UniProt P22694); conditions: kinase PKAcb, compound 10 uM; for remaining activity at 10 µM: read-out: % Enzyme Activity (relative to DMSO controls)
T10 construct: purchased Reaction Biology (HotSpot contract assay)

382 unique human kinases [11] = target: T11, 382 unique human kinases (Homo sapiens, UniProt Q8N4C8); conditions: MINK/MINK1, 10 uM; for remaining activity at 10 µM: read-out: % Enzyme Activity (relative to DMSO controls)
T11 construct: purchased Reaction Biology (HotSpot contract assay)

382 unique human kinases [12] = target: T12, 382 unique human kinases (Homo sapiens, UniProt P22455, V550L); conditions: FGFR4 (V550L), 10 uM; for remaining activity at 10 µM: read-out: % Enzyme Activity (relative to DMSO controls)
T12 construct: purchased Reaction Biology (HotSpot contract assay)
T12 sequence (P22455 22-802 V550L): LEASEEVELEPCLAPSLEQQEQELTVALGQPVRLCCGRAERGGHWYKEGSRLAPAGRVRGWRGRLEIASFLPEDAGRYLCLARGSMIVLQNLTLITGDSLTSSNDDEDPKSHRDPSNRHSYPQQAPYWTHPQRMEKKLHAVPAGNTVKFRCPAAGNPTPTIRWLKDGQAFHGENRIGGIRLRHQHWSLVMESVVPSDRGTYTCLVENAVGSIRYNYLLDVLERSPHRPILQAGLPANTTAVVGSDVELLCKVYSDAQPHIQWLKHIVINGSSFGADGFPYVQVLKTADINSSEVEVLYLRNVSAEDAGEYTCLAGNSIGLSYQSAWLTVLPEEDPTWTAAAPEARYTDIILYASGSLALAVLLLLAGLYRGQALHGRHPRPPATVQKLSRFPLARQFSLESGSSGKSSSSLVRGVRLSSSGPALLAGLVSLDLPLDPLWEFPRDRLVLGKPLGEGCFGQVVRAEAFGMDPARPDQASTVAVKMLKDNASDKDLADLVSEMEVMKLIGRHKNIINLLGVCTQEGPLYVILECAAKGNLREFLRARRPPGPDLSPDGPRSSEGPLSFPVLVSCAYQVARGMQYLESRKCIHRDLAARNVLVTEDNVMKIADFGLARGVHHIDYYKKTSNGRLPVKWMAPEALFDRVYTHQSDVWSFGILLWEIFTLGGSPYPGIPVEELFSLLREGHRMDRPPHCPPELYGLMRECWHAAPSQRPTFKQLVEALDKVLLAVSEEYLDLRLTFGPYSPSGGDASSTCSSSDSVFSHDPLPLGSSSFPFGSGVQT

382 unique human kinases [13] = target: T13, 382 unique human kinases (Homo sapiens, UniProt Q8NE63); conditions: HIPK4, 10 uM; for remaining activity at 10 µM: read-out: % Enzyme Activity (relative to DMSO controls)
T13 construct: purchased Reaction Biology (HotSpot contract assay)
T13 sequence (Q8NE63 1-616): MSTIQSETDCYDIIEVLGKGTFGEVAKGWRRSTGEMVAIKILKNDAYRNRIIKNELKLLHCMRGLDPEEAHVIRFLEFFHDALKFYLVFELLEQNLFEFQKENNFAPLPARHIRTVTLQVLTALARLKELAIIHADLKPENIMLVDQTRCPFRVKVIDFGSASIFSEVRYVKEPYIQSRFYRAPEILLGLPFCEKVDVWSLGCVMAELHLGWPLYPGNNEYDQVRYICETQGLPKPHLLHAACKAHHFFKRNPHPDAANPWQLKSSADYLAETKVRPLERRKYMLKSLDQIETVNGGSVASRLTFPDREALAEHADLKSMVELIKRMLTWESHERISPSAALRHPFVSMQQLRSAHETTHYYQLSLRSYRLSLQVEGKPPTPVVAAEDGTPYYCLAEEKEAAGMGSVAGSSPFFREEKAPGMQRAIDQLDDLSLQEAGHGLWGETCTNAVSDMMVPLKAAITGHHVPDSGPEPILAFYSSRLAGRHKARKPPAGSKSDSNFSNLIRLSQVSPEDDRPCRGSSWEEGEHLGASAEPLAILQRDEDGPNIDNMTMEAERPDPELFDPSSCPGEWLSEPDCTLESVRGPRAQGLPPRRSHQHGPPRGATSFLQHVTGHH

Row | Structure (SMILES) | remaining activity at 10 µM (382 unique human kinases [1]) | remaining activity at 10 µM (382 unique human kinases [2]) | remaining activity at 10 µM (382 unique human kinases [3]) | remaining activity at 10 µM (382 unique human kinases [4]) | remaining activity at 10 µM (382 unique human kinases [5]) | remaining activity at 10 µM (382 unique human kinases [6]) | remaining activity at 10 µM (382 unique human kinases [7]) | remaining activity at 10 µM (382 unique human kinases [8]) | remaining activity at 10 µM (382 unique human kinases [9]) | remaining activity at 10 µM (382 unique human kinases [10]) | remaining activity at 10 µM (382 unique human kinases [11]) | remaining activity at 10 µM (382 unique human kinases [12]) | remaining activity at 10 µM (382 unique human kinases [13]) | also measured
1 | CCNC(=O)c1noc(-c2cc(C(C)C)c(O)cc2O)c1-c1ccc(CN2CCOCC2)cc1 [Luminespib] | 60.2% | 99.2% | 100% | 109% | 86.5% |  |  |  |  |  |  |  |  | % Enzyme Activity (relative to DMSO controls) (382 unique human kinases [1]): 59.05%; % Enzyme Activity (relative to DMSO controls) (382 unique human kinases [2]): 99.07%; % Enzyme Activity (relative to DMSO controls) (382 unique human kinases [3]): 98.33%; % Enzyme Activity (relative to DMSO controls) (382 unique human kinases [4]): 103.58%; % Enzyme Activity (relative to DMSO controls) (382 unique human kinases [5]): 86.48%
2 | CC(C)c1cc(-c2n[nH]c(=O)n2-c2ccc3c(ccn3C)c2)c(O)cc1O [Ganetespib (STA9090)] |  |  |  |  |  | 90% | 124% | 108% | 78.8% | 96.3% | 73.6% | 76.1% | 64.4% | 
3 | CCNC(=O)c1noc(-c2cc(C(C)C)c(O)cc2O)c1-c1ccc(CN2CCOCC2)cc1 [Luminespib (AUY-922)] |  |  |  |  |  | 99.7% | 122% | 112% | 93.5% | 103% | 86.4% | 101% | 88.8% | % Enzyme Activity (relative to DMSO controls) (382 unique human kinases [6]): 99.14%; % Enzyme Activity (relative to DMSO controls) (382 unique human kinases [7]): 121.05%; % Enzyme Activity (relative to DMSO controls) (382 unique human kinases [8]): 112.11%; % Enzyme Activity (relative to DMSO controls) (382 unique human kinases [9]): 92.24%; % Enzyme Activity (relative to DMSO controls) (382 unique human kinases [10]): 100.86%; % Enzyme Activity (relative to DMSO controls) (382 unique human kinases [11]): 85.21%; % Enzyme Activity (relative to DMSO controls) (382 unique human kinases [12]): 101.11%; % Enzyme Activity (relative to DMSO controls) (382 unique human kinases [13]): 88.32%
4 | CC(C)c1cc(-c2n[nH]c(=O)n2-c2ccc3c(ccn3C)c2)c(O)cc1O [Ganetespib] | 49.7% | 45.5% | 126% | 91.4% | 39% |  |  |  |  |  |  |  |  | 
